Where two headings read alike, the source gives them in different places.
What was measured:
[1] = test system: normal mice fibroblast (MEF); assay: MTT cytotoxicity, normal cell strain; assay type: cell-based, mouse; details: for EC50: Normal Mouse Fibroblast, 72 hours, MTT; for sensitivity of normal cells to the compounds: concentration up to 30 μm, cells can still grow well
[2] = test system: A549; assay: MTT cytotoxicity, human tumor cell strain; assay type: cell-based; details: A549, Lung, 72 hours
From the text: (§1) We use human tumor cell lines to conduct cytotoxicity analysis. Thirty-one (31) kinds of human tumor cell strains are cultivated in the normal culture medium containing various compounds of zhangnan-5, zhangnan-7 and zhangnan-8. The human tumor lines are bought from ATCC and NCI, and is cultivated with DMEM culture solution containing 10% FBS in 370C couveuse containing 5% CO2. The merged cells are digested by trypsinase, and are counted after washed by the culture solution. 3000˜6000 cells are added into each hole of the 96-hole culture plate, and are hatched for 16 hours or 24 hours. Then, compounds zhangnan-5, zhangnan-7 and zhangnan-8 with different concentrations are added into the holes. Upon further cultivated for another 72 hours, MTT tests are conducted to cells in group treated with drugs and the control group cells, to determine the survival condition of the cells.

[3] = test system: MCF-7; assay: MTT cytotoxicity, human tumor cell strain; assay type: cell-based; details: MCF7, MCF-7, Mammary Gland, 72 hours
From the text: as §1

[4] = test system: D145; assay: MTT cytotoxicity, human tumor cell strain; assay type: cell-based; details: D145, Prostate, 72 hours
From the text: as §1

[5] = test system: Caki-1; assay: MTT cytotoxicity, human tumor cell strain; assay type: cell-based; details: Caki-1, Kidney, 72 hours
From the text: as §1

[6] = test system: SK-MEL-5; assay: MTT cytotoxicity, human tumor cell strain; assay type: cell-based; details: SK-MEL-5, Skin (melanoma), 72 hours
From the text: as §1

[7] = test system: Mid PaCa-2; assay: MTT cytotoxicity, human tumor cell strain; assay type: cell-based; details: Mid PaCa-2, Pancreatic Gland, 72 hours
From the text: as §1

[8] = test system: Widr; assay: MTT cytotoxicity, human tumor cell strain; assay type: cell-based; details: Colon, 72 hours
From the text: as §1

[9] = test system: SKOV3; assay: MTT cytotoxicity, human tumor cell strain; assay type: cell-based; details: SK-OV-3, SKOV3, Ovary, 72 hours
From the text: as §1

[10] = test system: SN12C; assay: MTT cytotoxicity, human tumor cell strain; assay type: cell-based; details: Kidney, 72 hours
From the text: as §1

[11] = test system: ACHN; assay: MTT cytotoxicity, human tumor cell strain; assay type: cell-based; details: Kidney, 72 hours
From the text: as §1

[12] = test system: CNE-2Z; assay: MTT cytotoxicity, human tumor cell strain; assay type: cell-based; details: CNE2Z, Nasopharynx, 72 hours
From the text: as §1

[13] = test system: G-361; assay: MTT cytotoxicity, human tumor cell strain; assay type: cell-based; details: G-361, Skin (melanoma), 72 hours
From the text: as §1

[14] = test system: 786-O; assay: MTT cytotoxicity, human tumor cell strain; assay type: cell-based; details: 786-0, Kidney, 72 hours
From the text: as §1

[15] = test system: PC3; assay: MTT cytotoxicity, human tumor cell strain; assay type: cell-based; details: PC-3, PC3, Prostate, 72 hours
From the text: as §1

[16] = test system: LnCAP; assay: MTT cytotoxicity, human tumor cell strain; assay type: cell-based; details: Prostate, 72 hours
From the text: as §1

[17] = test system: AU-565; assay: MTT cytotoxicity, human tumor cell strain; assay type: cell-based; details: AU565, AU-565, Mammary Gland, 72 hours
From the text: as §1

[18] = test system: SGC-7901; assay: MTT cytotoxicity, human tumor cell strain; assay type: cell-based; details: SGC-7901, Stomach, 72 hours
From the text: as §1

[19] = test system: EC109; assay: MTT cytotoxicity, human tumor cell strain; assay type: cell-based; details: ECa-109, EC109, Esophagus, 72 hours
From the text: as §1

[20] = test system: U-251; assay: MTT cytotoxicity, human tumor cell strain; assay type: cell-based; details: U-251, Malignant Glioma, 72 hours
From the text: as §1

[21] = test system: HCT-116; assay: MTT cytotoxicity, human tumor cell strain; assay type: cell-based; details: HCT-116, Colon, 72 hours
From the text: as §1

[22] = test system: Jurkat; assay: MTT cytotoxicity, human tumor cell strain; assay type: cell-based; details: Leukemia T Cell, 72 hours
From the text: as §1

[23] = test system: Raji; assay: MTT cytotoxicity, human tumor cell strain; assay type: cell-based; details: Lymphoma, 72 hours
From the text: as §1

[24] = test system: MDA-MB-435; assay: MTT cytotoxicity, human tumor cell strain; assay type: cell-based; details: MDA-MB-435, Mammary Gland, 72 hours
From the text: as §1

[25] = test system: BT-549; assay: MTT cytotoxicity, human tumor cell strain; assay type: cell-based; details: BT-549, Mammary Gland, 72 hours
From the text: as §1

[26] = test system: NCI-H23; assay: MTT cytotoxicity, human tumor cell strain; assay type: cell-based; details: NCI-H23, Lung, 72 hours
From the text: as §1

[27] = test system: IGROV1; assay: MTT cytotoxicity, human tumor cell strain; assay type: cell-based; details: IGROV-1, IGROV1, Ovary, 72 hours
From the text: as §1

[28] = test system: HT29; assay: MTT cytotoxicity, human tumor cell strain; assay type: cell-based; details: HT-29, HT29, Colon, 72 hours
From the text: as §1

[29] = test system: CCL-247; assay: MTT cytotoxicity, human tumor cell strain; assay type: cell-based; details: CCL-247, Colo, 72 hours
From the text: as §1

[30] = test system: CCL-225; assay: MTT cytotoxicity, human tumor cell strain; assay type: cell-based; details: CCL-225, Colon, 72 hours
From the text: as §1

[31] = test system: MDA-MB-231; assay: MTT cytotoxicity, human tumor cell strain; assay type: cell-based; details: MDA-MB-231, Mammary Gland, 72 hours
From the text: as §1

[32] = test system: LoVo; assay: MTT cytotoxicity, human tumor cell strain; assay type: cell-based; details: Colon, 72 hours
From the text: as §1

[33] = test system: C8166 (human T cell line); assay: Toxicity to C8166 cells (MTT, day 7); assay type: cell-based; details: Homo sapiens, read-out: IC50 (50% inhibition concentration) to C8166 cell
Experimental: (2) Toxicity of compounds zhangnan-5, zhangnan-7 and zhangnan-8 to C8166 and PBMC cells:
C8166 (human T cell line) and PBM (using lymphocyte isolation liquid to separate from normal human peripheral blood, and adhered mononuclear cell separated from PBMC) cells in exponential phase are taken. The cells are resuspended after centrifugal (1000 r•min-1, 10 min), and the concentrations are adjusted to 4×10^5/ml and 2×10^6/ml. The test samples are double diluted on the 96-hole cell culture plate. In total 6 gradients are set, each having 3 duplicate holes. In addition, positive control group and cell control group are set. Upon adding cell suspended liquid, the test samples are placed in incubator of 370C and 5% CO2 for incubation. On the seventh (7th) day, MTT method is used to determine toxicity of the samples to cells.
Inhibition ratio of cell growth (%)=(1−experimental hole OD value/control hole (OD value)×100%

Compound	EC50 [1] [µM]	sensitivity of normal cells to the compounds [1]	EC50 [2] [µM]	EC50 [3] [µM]	EC50 [4] [µM]	EC50 [5] [µM]	EC50 [6] [µM]	EC50 [7] [µM]	EC50 [8] [µM]	EC50 [9] [µM]	EC50 [10] [µM]	EC50 [11] [µM]	EC50 [12] [µM]	EC50 [13] [µM]	EC50 [14] [µM]	EC50 [15] [µM]	EC50 [16] [µM]	EC50 [17] [µM]	EC50 [18] [µM]	EC50 [19] [µM]	other results
CC(C)C1CCC2(C(=O)O)CCC3(C)C(CCC4C5(C)CCC(O)C(C)(CO)C5CCC43C)C12 (stereo not drawn) [zhangnan-8, 23-hydroxyl-dihydrobetulinic acid]	> 30	not sensitive	6.9	7.8	8.4	9.2	4.9	9.4	8.1	6.9	7.6	8.9	10.2	5.3	8.1	8.9	7.8	6.8	8.9	9.5	EC50 [20]: 5.6 µM; EC50 [21]: 7.8 µM; EC50 [22]: 7.1 µM; EC50 [23]: 6.9 µM; EC50 [24]: 7.9 µM; EC50 [25]: 7.4 µM; EC50 [26]: 6.7 µM; EC50 [27]: 7.2 µM; EC50 [28]: 8.9 µM; EC50 [29]: 8.2 µM; EC50 [30]: 8.6 µM; EC50 [31]: 7.2 µM; EC50 [32]: 9.6 µM; IC50 ([33]; 168 h, C8166, day 7, MTT): 10.3 ± 2.9 µM
C=C(C)C1CCC2(C(=O)O)CCC3(C)C(CCC4C5(C)CCC(=O)C(C)(CO)C5CCC43C)C12 (stereo not drawn) [zhangnan-5]	> 30	not sensitive	0.54	0.58	0.85	0.98	0.093	0.93	0.28	1.5	1.3	1.2	1.3	0.087	3.1	0.91	0.69	0.59	0.89	0.78	EC50 [20]: 0.089 µM; EC50 [21]: 0.09 µM; EC50 [22]: 0.14 µM; EC50 [23]: 0.098 µM; EC50 [24]: 0.55 µM; EC50 [25]: 0.67 µM; EC50 [26]: 0.32 µM; EC50 [27]: 2.1 µM; EC50 [28]: 0.47 µM; EC50 [29]: 0.52 µM; EC50 [30]: 0.23 µM; EC50 [31]: 0.47 µM; EC50 [32]: 0.15 µM; IC50 ([33]; C8166, 168 h): 2.3 ± 0.47 µM
CC(C)C1CCC2(C(=O)O)CCC3(C)C(CCC4C5(C)CCC(=O)C(C)(CO)C5CCC43C)C12 (stereo not drawn) [zhangnan-7]	> 30	not sensitive	13.1	16.9	14.8	20.1	18.5	18.9	14.8	16.9	17.5	18.3	19.2	19.3	16.8	16.2	15.6	18.2	18.5	17.9	EC50 [20]: 17.8 µM; EC50 [21]: 15.1 µM; EC50 [22]: 21.3 µM; EC50 [23]: 20.5 µM; EC50 [24]: 19.3 µM; EC50 [25]: 17.4 µM; EC50 [26]: 12.8 µM; EC50 [27]: 17.4 µM; EC50 [28]: 13.9 µM; EC50 [29]: 15.6 µM; EC50 [30]: 16.1 µM; EC50 [31]: 17.5 µM; EC50 [32]: 15.2 µM; IC50 ([33]; 168 h, C8166, day 7, MTT): 25 ± 5.2 µM

Source: patent publication US20120302530A1, “23-HYDROXY-BETULINIC ACID DERIVATIVES, PREPARATION METHODS AND USES THEREOF” (priority 2009, published 2012)
